Results published in publication PMC7252619 (PLoS ONE, 2020).
pIC50: −log10 of the molar value. Like-named read-outs stand apart in the source and are kept apart here.

Tests used:
EPHB4 = target: T1, EPHB4 (Homo sapiens, UniProt P54760); experiment: Kinase activity test (ReactionBiology), % enzyme activity relative to DMSO; format: biochemical; details: EPHB4;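 further: EPHB4 was one of ten selected kinases in the screening panel, with enzyme activity expressed as a percentage of DMSO controls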
T1 construct: purchased ReactionBiology
T1 sequence (P54760 16-987): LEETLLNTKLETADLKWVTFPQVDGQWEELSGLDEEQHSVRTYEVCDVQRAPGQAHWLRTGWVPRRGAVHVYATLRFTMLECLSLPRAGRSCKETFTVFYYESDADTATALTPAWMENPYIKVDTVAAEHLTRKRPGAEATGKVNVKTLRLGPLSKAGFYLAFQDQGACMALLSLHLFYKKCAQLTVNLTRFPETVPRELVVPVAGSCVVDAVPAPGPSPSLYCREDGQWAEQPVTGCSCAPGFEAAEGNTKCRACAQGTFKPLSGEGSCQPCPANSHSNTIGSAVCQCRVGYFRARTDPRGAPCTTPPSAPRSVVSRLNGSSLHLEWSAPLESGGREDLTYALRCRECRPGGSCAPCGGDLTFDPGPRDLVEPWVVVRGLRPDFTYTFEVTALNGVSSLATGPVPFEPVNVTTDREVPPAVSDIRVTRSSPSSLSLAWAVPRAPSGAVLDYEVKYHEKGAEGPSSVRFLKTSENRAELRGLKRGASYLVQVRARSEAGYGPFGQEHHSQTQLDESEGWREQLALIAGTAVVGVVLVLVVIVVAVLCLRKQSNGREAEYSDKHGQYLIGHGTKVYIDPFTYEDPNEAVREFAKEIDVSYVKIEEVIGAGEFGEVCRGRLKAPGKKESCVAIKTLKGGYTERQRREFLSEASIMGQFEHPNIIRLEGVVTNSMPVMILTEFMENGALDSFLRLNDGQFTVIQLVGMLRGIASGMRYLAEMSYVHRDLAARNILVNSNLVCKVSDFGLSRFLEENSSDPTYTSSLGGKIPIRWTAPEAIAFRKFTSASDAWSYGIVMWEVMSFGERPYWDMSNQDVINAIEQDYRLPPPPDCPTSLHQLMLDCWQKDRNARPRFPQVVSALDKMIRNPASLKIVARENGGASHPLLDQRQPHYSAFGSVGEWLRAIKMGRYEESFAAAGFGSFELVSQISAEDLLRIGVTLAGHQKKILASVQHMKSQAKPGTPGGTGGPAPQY

[1] = WST-1 cytotoxicity assay on RPMI1788 cells (B-cell line); format: cell-based, human; details: human, RPMI1788 cells (B-cell line), mean of 4 independent measures, read-out: Cytotoxicity, WST-1 RPMI 1788 IC 50 (µM) Mean
[2] = test system: human PBMCs (responder cells) with RPMI1788 stimulator cells; experiment: Mixed Lymphocyte Reaction (MLR, T cell assay), 3H-thymidine incorporation; format: cell-based; details: Homo sapiens, RPMI-1788; mean of 4 independent measures; read-out: T-cell efficacy, MLR IC 50 (µM) Mean
DAPK1 = target: T2, DAPK1 (Homo sapiens, UniProt P53355); experiment: Kinase activity test (ReactionBiology), % enzyme activity relative to DMSO; format: biochemical; details: DAPK1
T2 construct: purchased ReactionBiology

NEK2 = target: T3, NEK2 (Homo sapiens, UniProt P51955); experiment: as above; format: biochemical; details: NEK2;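 further: FDA-approved drugs chosen by structure-based repositioning, each screened at 10 or 1 µM for kinase activity, expressed as percent of DMSO controls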
T3 construct: purchased ReactionBiology
T3 sequence (P51955 1-445): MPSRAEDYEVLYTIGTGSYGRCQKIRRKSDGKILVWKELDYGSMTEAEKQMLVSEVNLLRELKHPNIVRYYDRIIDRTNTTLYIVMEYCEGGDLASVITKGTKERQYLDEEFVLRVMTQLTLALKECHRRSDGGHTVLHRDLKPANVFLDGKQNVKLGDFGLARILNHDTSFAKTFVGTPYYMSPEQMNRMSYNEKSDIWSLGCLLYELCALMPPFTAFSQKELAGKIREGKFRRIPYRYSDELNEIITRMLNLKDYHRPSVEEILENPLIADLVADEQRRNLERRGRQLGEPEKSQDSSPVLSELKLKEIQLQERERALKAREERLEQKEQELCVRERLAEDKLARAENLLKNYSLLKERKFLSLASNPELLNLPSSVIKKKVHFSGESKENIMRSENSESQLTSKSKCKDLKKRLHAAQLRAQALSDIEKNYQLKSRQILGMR

MST-4 = target: T4, MST-4 (Homo sapiens, UniProt Q9P289); experiment: as above; format: biochemical; details: MST4;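 further: marketed FDA-approved drugs screened at 10 µM and 1 µM against a ten-kinase panel, remaining activity given as percent of DMSO controls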
T4 construct: purchased ReactionBiology

[3] = WST-1 cytotoxicity assay on Jurkat cells (T-cell line); format: cell-based, human; details: human, Jurkat cells (T-cell line), mean of 4 independent measures, read-out: Cytotoxicity, WST-1 Jurkat IC 50 (µM) Mean
Method: (§1) Compounds were prepared as 10 mM stock solutions in dimethylsulfoxide (DMSO)and were tested at 50-10-1-0.1-0.01 and 0.001 μM in the 4 assays.
The human B cell line RPMI1788 (American Type Culture Collection, USA) and the human T cell line Jurkat (European Collection of Cell Cultures, ECACC, England) were maintained in RPMI1640 culture medium (BioWhittaker®, Lonza, Verviers, Belgium) containing 10% foetal calf serum (FCS, HyClone® Thermo Scientific, United Kingdom) and 5 μg/mL gentamicin sulphate (BioWhittaker®, Lonza, Verviers, Belgium) at 37°C and 5% CO2.
WST-1 assays on RPMI-1788 cells and Jurkat cells were performed as follows: 20 μL of test compound dilution were added to each well containing exponential growing cells and the plates were incubated for 48 h at 37°C, 5% CO2. Untreated cells and positive control (1% triton X-100, for the last 15 min) served as reference for maximum and minimum viability. At the end of incubation 100 μL of supernatant were removed and replaced by 10 μL of WST-1 solution (Cell Proliferation Reagent WST-1, Roche Applied Science).

human CD19+ B cells = experiment: B-cell assay: IgG production of ODN2006-stimulated primary B cells (AlphaLISA); format: cell-based; details: Homo sapiens, B-cell, 168 h; IgG production, ODN2006 0.1 μM, 7 days; mean of 4 independent experiments; read-out: B-cell IC50
Method: as §1
Blood samples of healthy volunteers were collected at the Red Cross of Mechelen, Belgium.
Highly purified naive peripheral human B cells were separated from fresh human PBMCs on magnetic columns by positive selection using CD19 magnetic beads according to the manufacturer’s instructions (MACS Miltenyi Biotech, Leiden, The Netherlands). […] Freshly isolated human CD19+ B cells were then plated at 25 000 cells per well in a 384-well plate (Perkin Elmer, Zaventem, Belgium) in 55 μL in DMEM medium containing 10% FCS and 5 μg/mL gentamicin sulphate. After 7 days of stimulation with 0.1 μM ODN2006 (InvivoGen, Toulouse, France), supernatant was taken for analysis of IgG using the AlphaLISA human IgG kit according to the manufacturer’s instructions (Perkin Elmer, Zaventem, Belgium).

CK1d = target: T5, CK1d (Homo sapiens, UniProt P48730); experiment: Kinase activity test (ReactionBiology), % enzyme activity relative to DMSO; format: biochemical; details: CK1d
T5 construct: purchased ReactionBiology

VEGFR2 = VEGFR2 (Homo sapiens, UniProt P35968); experiment: as above; format: biochemical; design: purchased ReactionBiology; details: VEGFR2;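 further: VEGFR2 was one member of a ten-kinase screening panel testing marketed FDA-approved drugs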
[4] = Average, read-out: % Enzyme Activity (relative to DMSO controls), Average
[5] = replicate Data 1, read-out: % Enzyme Activity (relative to DMSO controls), Data 1
[6] = replicate Data 2, read-out: % Enzyme Activity (relative to DMSO controls), Data 2
[7] = 1 uM, Average, read-out: % Enzyme Activity (relative to DMSO controls), Average
[8] = 1 uM, replicate Data 1, read-out: % Enzyme Activity (relative to DMSO controls), Data 1
[9] = 1 uM, replicate Data 2, read-out: % Enzyme Activity (relative to DMSO controls), Data 2
[10] = 10 uM, Average, read-out: % Enzyme Activity (relative to DMSO controls), Average
[11] = 10 uM, replicate Data 1, read-out: % Enzyme Activity (relative to DMSO controls), Data 1
[12] = 10 uM, replicate Data 2, read-out: % Enzyme Activity (relative to DMSO controls), Data 2
[13] = compound 1μM, relative to DMSO controls, read-out: % Enzyme activity at 1μM
[14] = compound 10μM, relative to DMSO controls, read-out: % Enzyme activity at 10μM

T2 sequence (P53355 whole entry): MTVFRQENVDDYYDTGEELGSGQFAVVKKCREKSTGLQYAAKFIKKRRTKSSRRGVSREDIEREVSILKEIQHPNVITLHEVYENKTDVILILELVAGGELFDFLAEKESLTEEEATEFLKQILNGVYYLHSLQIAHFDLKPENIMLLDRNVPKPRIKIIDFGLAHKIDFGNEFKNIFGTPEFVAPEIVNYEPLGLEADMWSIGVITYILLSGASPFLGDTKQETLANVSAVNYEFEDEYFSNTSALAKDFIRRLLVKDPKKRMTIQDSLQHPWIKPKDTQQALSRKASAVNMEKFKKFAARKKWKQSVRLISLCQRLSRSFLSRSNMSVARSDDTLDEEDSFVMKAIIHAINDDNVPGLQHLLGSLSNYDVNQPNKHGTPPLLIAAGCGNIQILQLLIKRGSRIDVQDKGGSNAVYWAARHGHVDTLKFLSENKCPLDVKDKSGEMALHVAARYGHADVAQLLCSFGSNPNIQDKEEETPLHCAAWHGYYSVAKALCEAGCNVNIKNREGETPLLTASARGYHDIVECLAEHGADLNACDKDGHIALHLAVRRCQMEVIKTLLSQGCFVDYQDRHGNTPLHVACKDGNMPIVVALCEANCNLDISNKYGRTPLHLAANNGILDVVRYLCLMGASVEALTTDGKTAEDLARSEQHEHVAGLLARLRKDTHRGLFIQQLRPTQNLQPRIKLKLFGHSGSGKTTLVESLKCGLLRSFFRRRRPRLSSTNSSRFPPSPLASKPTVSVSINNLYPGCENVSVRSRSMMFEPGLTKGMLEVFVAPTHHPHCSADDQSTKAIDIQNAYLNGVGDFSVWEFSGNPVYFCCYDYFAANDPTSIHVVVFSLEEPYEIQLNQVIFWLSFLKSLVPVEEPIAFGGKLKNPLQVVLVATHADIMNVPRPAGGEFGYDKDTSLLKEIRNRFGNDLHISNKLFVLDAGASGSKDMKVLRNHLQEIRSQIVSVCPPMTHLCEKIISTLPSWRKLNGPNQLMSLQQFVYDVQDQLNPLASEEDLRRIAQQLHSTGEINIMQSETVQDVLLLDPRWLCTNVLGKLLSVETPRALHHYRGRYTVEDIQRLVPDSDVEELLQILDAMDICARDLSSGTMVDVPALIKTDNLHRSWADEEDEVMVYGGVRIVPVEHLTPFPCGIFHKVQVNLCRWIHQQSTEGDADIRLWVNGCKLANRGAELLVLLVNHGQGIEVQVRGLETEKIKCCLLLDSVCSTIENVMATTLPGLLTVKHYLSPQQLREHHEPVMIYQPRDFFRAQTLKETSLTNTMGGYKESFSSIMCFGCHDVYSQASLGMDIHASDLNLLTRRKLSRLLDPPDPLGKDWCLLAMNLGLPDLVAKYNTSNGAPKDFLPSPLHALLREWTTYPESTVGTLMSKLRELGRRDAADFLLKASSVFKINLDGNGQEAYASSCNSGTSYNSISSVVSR
T5 sequence (P48730 whole entry): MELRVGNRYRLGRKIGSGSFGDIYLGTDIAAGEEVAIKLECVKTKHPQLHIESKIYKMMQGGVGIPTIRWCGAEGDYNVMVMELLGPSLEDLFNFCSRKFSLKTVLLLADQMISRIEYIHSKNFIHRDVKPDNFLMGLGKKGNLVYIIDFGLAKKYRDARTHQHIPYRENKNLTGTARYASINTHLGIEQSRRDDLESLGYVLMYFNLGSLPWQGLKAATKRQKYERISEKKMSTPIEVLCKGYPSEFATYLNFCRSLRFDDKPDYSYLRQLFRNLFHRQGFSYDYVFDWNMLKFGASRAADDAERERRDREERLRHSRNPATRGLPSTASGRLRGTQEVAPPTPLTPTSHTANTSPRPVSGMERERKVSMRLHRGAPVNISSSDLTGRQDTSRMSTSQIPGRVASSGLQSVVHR
Chain of VEGFR2 (P35968 20-1356): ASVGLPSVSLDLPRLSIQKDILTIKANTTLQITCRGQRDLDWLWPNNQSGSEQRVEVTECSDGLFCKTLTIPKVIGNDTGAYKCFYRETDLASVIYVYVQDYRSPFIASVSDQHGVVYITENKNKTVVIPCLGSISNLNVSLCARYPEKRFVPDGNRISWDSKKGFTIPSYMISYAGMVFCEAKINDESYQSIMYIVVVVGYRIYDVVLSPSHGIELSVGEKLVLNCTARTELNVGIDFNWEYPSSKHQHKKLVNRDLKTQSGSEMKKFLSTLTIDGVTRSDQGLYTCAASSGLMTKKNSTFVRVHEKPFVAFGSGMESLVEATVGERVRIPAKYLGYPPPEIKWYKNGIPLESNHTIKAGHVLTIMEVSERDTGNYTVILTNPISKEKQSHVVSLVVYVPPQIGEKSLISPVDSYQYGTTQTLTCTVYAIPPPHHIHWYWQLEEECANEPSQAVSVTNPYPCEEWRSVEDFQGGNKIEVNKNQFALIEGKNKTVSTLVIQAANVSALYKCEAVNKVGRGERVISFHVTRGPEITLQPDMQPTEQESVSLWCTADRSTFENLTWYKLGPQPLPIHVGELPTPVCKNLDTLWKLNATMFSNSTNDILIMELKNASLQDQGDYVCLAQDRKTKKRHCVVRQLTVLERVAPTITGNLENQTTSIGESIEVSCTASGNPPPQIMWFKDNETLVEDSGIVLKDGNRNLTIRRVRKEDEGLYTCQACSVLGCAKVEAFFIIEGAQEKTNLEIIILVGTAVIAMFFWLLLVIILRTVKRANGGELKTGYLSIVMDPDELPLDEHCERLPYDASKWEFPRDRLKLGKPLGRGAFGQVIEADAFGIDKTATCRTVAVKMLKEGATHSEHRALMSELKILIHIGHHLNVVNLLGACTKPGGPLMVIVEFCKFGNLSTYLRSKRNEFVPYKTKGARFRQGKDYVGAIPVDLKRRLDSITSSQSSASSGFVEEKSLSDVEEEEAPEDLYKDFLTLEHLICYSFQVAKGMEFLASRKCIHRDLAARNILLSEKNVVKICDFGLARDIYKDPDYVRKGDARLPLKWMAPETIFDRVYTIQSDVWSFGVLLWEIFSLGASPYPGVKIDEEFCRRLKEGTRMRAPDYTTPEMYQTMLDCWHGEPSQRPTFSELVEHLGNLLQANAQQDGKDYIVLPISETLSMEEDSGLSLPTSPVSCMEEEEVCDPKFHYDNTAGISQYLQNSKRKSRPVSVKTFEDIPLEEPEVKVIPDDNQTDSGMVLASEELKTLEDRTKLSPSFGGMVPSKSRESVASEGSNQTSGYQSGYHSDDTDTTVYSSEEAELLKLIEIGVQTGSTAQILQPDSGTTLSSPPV
T4 sequence (Q9P289 whole entry): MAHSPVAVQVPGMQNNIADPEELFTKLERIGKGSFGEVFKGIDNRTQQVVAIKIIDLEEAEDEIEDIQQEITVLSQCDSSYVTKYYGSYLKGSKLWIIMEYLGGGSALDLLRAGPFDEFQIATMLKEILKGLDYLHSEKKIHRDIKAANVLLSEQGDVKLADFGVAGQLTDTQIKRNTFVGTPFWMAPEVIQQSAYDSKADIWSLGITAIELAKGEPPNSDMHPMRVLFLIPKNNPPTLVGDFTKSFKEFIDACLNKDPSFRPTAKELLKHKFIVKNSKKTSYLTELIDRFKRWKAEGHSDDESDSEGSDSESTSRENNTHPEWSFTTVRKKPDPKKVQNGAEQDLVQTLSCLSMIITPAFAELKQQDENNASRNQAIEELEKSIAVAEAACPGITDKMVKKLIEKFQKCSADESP

Nc1ncnc2c1ncn2[C@@H]1O[C@H](CO)[C@@H](O)[C@H]1O [Adenosine, reference compound]
remaining activity at 1 µM (EPHB4; [4]): 101% | remaining activity at 1 µM (EPHB4; [5]): 100% | remaining activity at 1 µM (EPHB4; [6]): 102% | remaining activity at 10 µM (EPHB4; [4]): 85.4% | remaining activity at 10 µM (EPHB4; [5]): 84.1% | remaining activity at 10 µM (EPHB4; [6]): 86.8% | IC50 at 48 h [1]: > 50 µM | IC50 [2]: > 50 µM | remaining activity at 1 µM (DAPK1; [4]): 99.3% | remaining activity at 1 µM (DAPK1; [5]): 103% | remaining activity at 1 µM (DAPK1; [6]): 95.9% | remaining activity at 10 µM (DAPK1; [4]): 81.1% | remaining activity at 10 µM (DAPK1; [5]): 80.8% | remaining activity at 10 µM (DAPK1; [6]): 81.4% | remaining activity at 1 µM (NEK2; [7]): 79.9% | remaining activity at 1 µM (NEK2; [8]): 73.6% | remaining activity at 1 µM (NEK2; [9]): 86.1% | remaining activity at 10 µM (NEK2; [10]): 71.7% | remaining activity at 10 µM (NEK2; [11]): 77.2% | remaining activity at 10 µM (NEK2; [12]): 66.2% | remaining activity at 1 µM (NEK2; [13]): 96.1% | remaining activity at 10 µM (NEK2; [14]): 59% | remaining activity at 1 µM (MST-4; [4]): 91.7% | remaining activity at 1 µM (MST-4; [5]): 92.1% | remaining activity at 1 µM (MST-4; [6]): 91.2% | remaining activity at 10 µM (MST-4; [4]): 78.5% | remaining activity at 10 µM (MST-4; [5]): 69.9% | remaining activity at 10 µM (MST-4; [6]): 87.1% | IC50 at 48 h [3]: > 50 µM | pIC50 (human CD19+ B cells): < 4.30 | remaining activity at 1 µM (CK1d; [7]): 87.7% | remaining activity at 1 µM (CK1d; [8]): 86.5% | remaining activity at 1 µM (CK1d; [9]): 88.9% | remaining activity at 10 µM (CK1d; [10]): 50.2% | remaining activity at 10 µM (CK1d; [11]): 51.1% | remaining activity at 10 µM (CK1d; [12]): 49.4% | remaining activity at 1 µM (CK1d; [13]): 87.7% | remaining activity at 10 µM (CK1d; [14]): 50.2% | remaining activity at 1 µM (VEGFR2; [4]): 111% | remaining activity at 1 µM (VEGFR2; [5]): 111% | remaining activity at 1 µM (VEGFR2; [6]): 111% | remaining activity at 10 µM (VEGFR2; [4]): 98.3% | remaining activity at 10 µM (VEGFR2; [5]): 98.4% | remaining activity at 10 µM (VEGFR2; [6]): 98.2%
